Source: US20050159478A1, “Compositions containing d-tocopherol compound polybasic acid partial esters” (priority 2003, published 2005)
Values joined by “and” are separate entries in the source; they are usually repeats but may differ in a detail not shown here. Identical values can stand only once.

Experiments:
[1] = Oscillatory rheology, softening point at tan(δ) = 1; format: physicochemical; details: for Rheology (oscillatory) @ Tan(δ) = 1 Temperature (softening point): heating rate 5° C./min, oscillation stress 1.0 Pa, 1.0 Hz
Procedure: Rheology measurements are conducted with TA Instruments Rheolyst AR-1000N rheometer. Experiments are conducted with the parallel plate geometry in a nitrogen atmosphere. The experiments use an oscillation stress of 1.0 Pa at a frequency of 1.0 Hz. The temperature range of the experiments is 40 to 210° C. at a heating rate of 5.0° C./min. Per analogy to rigid sphere or polymers, for TCS samples below the melting point, change in the pseudo G′ and G″ moduli″ is used as an indication of the softening of the sample. The cross-over point corresponds to the point where the ratio of the […] or tan (δ) is equal to one. The temperature at which tan (δ) is equal to one is considered as the softening point for the solid TCS samples. In addition, the second derivative of the loss modulus vs temperature was calculated. A maximum or minimum in the second derivative indicates a curvature or inflexion in the G″ vs T. This can also be taken as indicator of a change in the state of the samples (softening or melting depending on the temperature).
Softening points of these tocopherol succinate samples were identified using oscillatory rheology measurements. The temperature at which tan(δ) is equal to one, i.e., cross-over point (or the point where the samples are less rigid) is considered as their softening point. We call the moduli “pseudo loss and storage moduli”, since below the melting point, the powder cannot in reality be viscoelastic.

[2] = Differential Scanning Calorimetry of tocopherol calcium succinate samples; format: physicochemical; details: heating rate 5° C./min; several thermal transitions per sample
Procedure: DSC measurements are conducted with a Perkin Elmer Pyris 1 Differential Scanning Calorimeter. Experiments are conducted between 40° C. and 250° C. at heating/cooling rates of 5.0 and 10.0° C./min. During the experiments, the samples are enclosed in an air tight aluminum pan. The aluminum pan is in a nitrogen purge at 30 psi.

| Rheology (oscillatory) @ Tan(δ) = 1 Temperature (softening point) [1] | DSC Enthalpy [2] | DSC Onset [2] | SMILES | softening point in comparison to synthetic dl-tocopherol calcium succinate ([1]; compared with dl-tocopherol calcium succinate) |
| --- | --- | --- | --- | --- |
| 147 °C |  |  | Cc1c(C)c2c(c(C)c1OC(=O)CCC(=O)[O-])CC[C@@](C)(CCC[C@H](C)CCC[C@H](C)CCCC(C)C)O2.Cc1c(C)c2c(c(C)c1OC(=O)CCC(=O)[O-])CC[C@@](C)(CCC[C@H](C)CCC[C@H](C)CCCC(C)C)O2.[Ca+2] (racemic) [dl-tocopherol calcium succinate, reference compound] |  |
| 74 °C | 80.00 J/g | 74.5 °C | Cc1c(C)c2c(c(C)c1OC(=O)CCC(=O)O)CC[C@@](C)(CCC[C@H](C)CCC[C@H](C)CCCC(C)C)O2 [d-α-tocopherol succinic acid] |  |
| 151 °C and 153 °C |  |  | Cc1c(C)c2c(c(C)c1OC(=O)CCC(=O)[O-])CC[C@@](C)(CCC[C@H](C)CCC[C@H](C)CCCC(C)C)O2.Cc1c(C)c2c(c(C)c1OC(=O)CCC(=O)[O-])CC[C@@](C)(CCC[C@H](C)CCC[C@H](C)CCCC(C)C)O2.[Ca+2] [d-α-tocopherol calcium succinate] | significantly improved, i.e., increased, softening point |
